Measurements reported in PubChem BioAssay (NCI).
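48-hour exposure; five concentrations; linearly interpolated endpoints. The concentration for full growth arrest is given as TGI.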

Experiments:
Experiment in all cases: DTP human tumour cell line panel, 48 h
[1] = test system: HOP-18 NSCLC
[2] = test system: MALME-3M melanoma
[3] = test system: CAKI-1 renal
[4] = test system: DMS 114 small cell lung
[5] = test system: M19-MEL melanoma
[6] = test system: M14 melanoma
[7] = test system: TK-10 renal
[8] = test system: DLD-1 colon
[9] = test system: LXFL 529 NSCLC
[10] = test system: KM20L2 colon
[11] = test system: ACHN renal
[12] = test system: A498 renal

SMILES	TGI [1]	TGI [2]	TGI [3]	TGI [4]	TGI [5]	TGI [6]	TGI [7]	TGI [8]	TGI [9]	TGI [10]	TGI [11]	TGI [12]
COc1ccccc1C1C(Cl)C(=O)N1n1cnc2ccccc2c1=O (stereo not given)	> 100 µM	> 100 µM	> 100 µM	> 100 µM	> 100 µM	> 100 µM	> 100 µM	> 100 µM	> 100 µM	> 100 µM	> 100 µM	–
CC(C)(C)OC(=O)N[C@H]1CC(O)c2ccccc2N(CC(=O)O)C1=O (stereo not given in full)	> 100 µM	> 100 µM	> 100 µM	> 100 µM	> 100 µM	> 100 µM	> 100 µM	> 100 µM	> 100 µM	> 100 µM	> 100 µM	–
NC(=S)N/N=C/c1nccc2ccccc12	> 100 µM	0.476 µM	58.7 µM	2.51 µM	3.41 µM	–	> 100 µM	> 100 µM	> 100 µM	> 100 µM	1.01 µM	> 100 µM
NC1=NC2=c3ccccc3=C(c3cnccn3)C2(c2cnccn2)c2ccccc21 (stereo not given)	> 100 µM	> 100 µM	> 100 µM	> 100 µM	> 100 µM	> 100 µM	> 100 µM	> 100 µM	–	> 100 µM	> 100 µM	69.1 µM
COC(=O)[C@H](Cc1ccccc1)NC(=O)/C(=C/C(C)C)NC(=O)[C@H](CCSC)NC=O	> 100 µM	–	> 100 µM	> 100 µM	> 100 µM	> 100 µM	> 100 µM	> 100 µM	> 100 µM	> 100 µM	> 100 µM	> 100 µM
